# Patent publication US4731486A, “Hydroformylation using low volatile phosphine ligands” (Union Carbide Corporation, priority 1986, dated 1988)
# Where a name gives a salt, the structure may show the parent alone.
# Columns and labels:
# [1] = Batch hydroformylation of propylene in stirred autoclave (Examples 1, 2, 11, 14, 19); details: 100° C., 90 psia 1:1:1 H2:CO:C3H6
# Description: A series of various rhodium complex catalyst precursor solutions consisting essentially of the solubilized reaction product of rhodium dicarbonyl acetylacetonate and various monosulfonated triphenylphosphine metal salt ligands were prepared and employed to hydroformylate propylene into C4 aldehydes in the following manner.
# Each rhodium catalytic precursor solution so prepared was then employed to hydroformylate propylene in a magnetically stirred, 100 mL capacity, stainless steel autoclave which was attached to a gas manifold for introducing gases to the desired partial pressures. The autoclave was also equipped with a pressure calibrator for determining reaction pressure to ±0.01 psia. and a platinum resistance thermometer for determining reactor solution temperatures to ±0.10° C. The reactor was heated externally by two 300 watt heating bands. The reactor solution temperature was controlled by a platinum resistance sensor connected to an external proportional temperature controller for controlling the temperature of the external band heaters.
# In each non-aqueous hydroformylation reaction, about 15 milliliters (about 14 grams) of the rhodium catalytic precursor solution so prepared was charged to the autoclave reactor under nitrogen and heated to the reaction temperature employed (as given in Table 1 below). The reactor was then vented down to 5 psig. and a premixed gas mixture of 1:1:1 carbon monoxide:hydrogen:propylene was introduced into the reactor via the gas manifold (partial pressures given in Table 1) and the propylene so hydroformylated.
# A comparison of the catalytic activity of aqueous and non-aqueous solutions of monosulfonated triphenylphosphine sodium salt ligand promoted catalysts in hydroformylating various molecular weight alphe-olefins was determined as follows.
# Both the aqueous and non-aqueous hydroformylation reactions were conducted under identical conditions with regard to temperature, rhodium and ligand concentration, hydrogen and carbon monoxide partial pressure and olefin concentration.
# [2] = Solubility of metal salt ligands in nonanal with added solubilizing agent; format: physicochemical; details: 25° C., nonanal with 1:4 CARBOWAX TPEG-900/TERGITOL NP-9
# [3] = Continuous single pass hydroformylation of butene-1 (Examples 3, 4, 5, 7, 12)
# Description: Continuous hydroformylation of butene-1 a monosulfonated triphenylphosphine metal salt ligand was conducted in the following manner.
# The non-aqueous hydroformylation was conducted in a glass reactor operating in a continuous single pass butene-1 hydroformylation mode. The reactor consisted of a three-ounce pressure bottle submersed in an oil bath with a lass front for viewing. About 20-mL of a freshly prepared rhodium catalytic precursor solution was charged to the reactor with a syringe, after purging the system with nitrogen. […] After closing the reactor, the system was again purged with nitrogen and the oil bath was heated to furnish the desired hydroformylation reaction temperature. The hydroformylation reaction was conducted at a total gas pressure of about 160 psig., the partial pressures of hydrogen, carbon monoxide, and butene-1 being given in Table 3 below, the remainder being nitrogen and aldehyde product.
# The flows of the feed gases (carbon monoxide, hydrogen, butene-1 and nitrogen) were controlled individually with mass flow meters and the feed gases dispersed into the precursor solution via microporous stainless steel spargers. The unreacted portion of the feed gases was stripped out with the product C5 aldehydes and the outlet gas analyzed over about 12 days of continuous operation.
# [4] = Texanol, 240 ppm Rhodium, about 14 mole equivalents ligand (0.9 wt. %)
# [5] = 200 ppm Rh, about 120 mole equivalents ligand, Texanol/Carbowax PEG-600: Li 100:0, K 9:1, Rb 8:1, Cs 7:1, Ca 20:1, Ba 7:1, Sr 18:1
# [6] = Texanol, day 0.8, 80 °C, CO 40, H2 39, C4H8 3 psia
# [7] = Texanol, day 1.9, 80 °C, CO 38, H2 41, C4H8 4 psia
# [8] = Texanol, day 2.8, 80 °C, CO 39, H2 41, C4H8 3 psia
# [9] = Texanol, day 3.9, 80 °C, CO 38, H2 42, C4H8 4 psia
# [10] = Texanol, day 5.0, 80 °C, CO 38, H2 42, C4H8 4 psia
# [11] = Texanol, day 5.8, 80 °C, CO 38, H2 42, C4H8 5 psia
# [12] = Texanol, day 6.8, 80 °C, CO 38, H2 43, C4H8 4 psia
# [13] = Texanol, day 7.8, 80 °C, CO 38, H2 44, C4H8 5 psia
# [14] = Texanol, day 9.0, 80 °C, CO 39, H2 43, C4H8 5 psia
# [15] = Texanol, day 10.0, 80 °C, CO 42, H2 38, C4H8 6 psia
# [16] = Texanol, day 10.9, 80 °C, CO 41, H2 39, C4H8 6 psia
# [17] = Texanol, day 11.0 (so in the source), 80 °C, CO 41, H2 39, C4H8 6 psia
# [18] = Texanol, day 12.9, 80 °C, CO 41, H2 39, C4H8 5 psia
# [19] = Texanol/PEG-600 20:1, day 0.9, 101 °C, CO 20, H2 59, C4H8 20 psia
# [20] = Texanol/PEG-600 20:1, day 1.7, 101 °C, CO 19, H2 55, C4H8 18 psia
# [21] = Texanol/PEG-600 20:1, day 5.0, 101 °C, CO 16, H2 47, C4H8 36 psia
# [22] = Texanol/PEG-600 20:1, day 5.9, 101 °C, CO 17, H2 51, C4H8 29 psia
# [23] = Texanol/PEG-600 20:1, day 7.0, 101 °C, CO 13, H2 43, C4H8 50 psia
# [24] = Texanol/PEG-600 20:1, day 8.0, 101 °C, CO 17, H2 41, C4H8 36 psia
# [25] = Texanol/PEG-600 20:1, day 9.0, […], CO 17, H2 36, C4H8 52 psia
# [26] = Texanol/PEG-600 20:1, day 10.0, […], CO 18, H2 30, C4H8 56 psia
# [27] = Texanol/PEG-600 20:1, day 11.8, […], CO 17, H2 29, C4H8 63 psia
# [28] = Texanol/PEG-600 20:1, day 11.9 (so in the source), […], CO 17, H2 29, C4H8 59 psia
# [29] = Texanol/PEG-600 20:1, day 12.6, 103 °C, CO 18, H2 29, C4H8 61 psia
smiles,measurement,setting,value
"O=S(=O)(O)c1cccc(P(c2ccccc2)C2CCCCC2)c1 (stereo not drawn) [CHDPPMS-Na, monosulfonated cyclohexyldiphenylphosphine sodium salt]",Linear/Branched Aldehyde Mole Ratio,[1]; [4],1.6
same,Reaction Rate (C4 aldehydes),[1]; [4],0.32 G moles/L/hr
O=S(=O)(O)c1cccc(P(c2ccccc2)c2ccccc2)c1 [K^+],Linear/Branched Aldehyde Mole Ratio,"[1]; 200 ppm Rh, about 120 mole equivalents ligand, Texanol/Carbowax PEG-600: Li 100:0, K 9:1, Rb 8:1, Ca 20:1, Ba 7:1",5.1
same,Reaction Rate (C4 aldehydes),[1]; [5],0.87 Gmoles/L/Hr
O=S(=O)(O)c1cccc(P(c2ccccc2)c2ccccc2)c1 [Cs^+],Reaction Rate (C4 aldehydes),[1]; [5],Declining Rate
same,Metal Salt Solubility,[2],> 10 Wt. %
O=S(=O)(O)c1cccc(P(c2ccccc2)c2ccccc2)c1 [Sr^++],Reaction Rate (C4 aldehydes),[1]; [5],No Rate
"O=S(=O)(O)c1cccc(P(C2CCCCC2)C2CCCCC2)c1 [DCHPPMS-Na, monosulfonated dicyclohexylphenylphosphine sodium salt]",Linear/Branched Aldehyde Mole Ratio,[1]; [4],1.2
same,Reaction Rate (C4 aldehydes),[1]; [4],0.78 G moles/L/hr
same,Linear/Branched Aldehyde Mole Ratio,[3]; [6],1.86
same,"Rate (C5 aldehydes), daily average",[3]; [6],0.86 gmoles/L/Hr
same,Linear/Branched Aldehyde Mole Ratio,[3]; [7],1.88
same,"Rate (C5 aldehydes), daily average",[3]; [7],1.02 gmoles/L/Hr
same,Linear/Branched Aldehyde Mole Ratio,[3]; [8],1.99
same,"Rate (C5 aldehydes), daily average",[3]; [8],0.87 gmoles/L/Hr
same,Linear/Branched Aldehyde Mole Ratio,[3]; [9],1.84
same,"Rate (C5 aldehydes), daily average",[3]; [9],0.85 gmoles/L/Hr
same,Linear/Branched Aldehyde Mole Ratio,[3]; [10],1.83
same,"Rate (C5 aldehydes), daily average",[3]; [10],0.88 gmoles/L/Hr
same,Linear/Branched Aldehyde Mole Ratio,[3]; [11],1.79
same,"Rate (C5 aldehydes), daily average",[3]; [11],0.86 gmoles/L/Hr
same,Linear/Branched Aldehyde Mole Ratio,[3]; [12],1.95
same,"Rate (C5 aldehydes), daily average",[3]; [12],0.80 gmoles/L/Hr
same,Linear/Branched Aldehyde Mole Ratio,[3]; [13],1.78
same,"Rate (C5 aldehydes), daily average",[3]; [13],0.86 gmoles/L/Hr
same,Linear/Branched Aldehyde Mole Ratio,[3]; [14],1.75
same,"Rate (C5 aldehydes), daily average",[3]; [14],0.72 gmoles/L/Hr
same,Linear/Branched Aldehyde Mole Ratio,[3]; [15],1.79
same,"Rate (C5 aldehydes), daily average",[3]; [15],0.94 gmoles/L/Hr
same,Linear/Branched Aldehyde Mole Ratio,[3]; [16],1.89
same,"Rate (C5 aldehydes), daily average",[3]; [16],0.95 gmoles/L/Hr
same,Linear/Branched Aldehyde Mole Ratio,[3]; [17],1.92
same,"Rate (C5 aldehydes), daily average",[3]; [17],0.99 gmoles/L/Hr
same,Linear/Branched Aldehyde Mole Ratio,[3]; [18],1.77
same,"Rate (C5 aldehydes), daily average",[3]; [18],0.95 gmoles/L/Hr
"O=S(=O)(O)c1cccc(P(c2ccccc2)c2ccccc2)c1 [Ca^++, monosulfonated triphenylphosphine calcium salt]",Linear/Branched Aldehyde Mole Ratio,"[1]; 200 ppm Rh, about 120 mole equivalents ligand, Texanol/Carbowax PEG-600: Li 100:0, K 9:1, Rb 8:1, Ca 20:1, Ba 7:1, calcium salt",4.7
same,Reaction Rate (C4 aldehydes),"[1]; 200 ppm Rh, about 120 mole equivalents ligand, Texanol/Carbowax PEG-600: Li 100:0, K 9:1, Rb 8:1, Cs 7:1, Ca 20:1, Ba 7:1, Sr 18:1, calcium salt",0.51 Gmoles/L/Hr
same,Metal Salt Solubility,[2]; calcium salt,18 Wt. %
same,Linear/Branched Aldehyde Mole Ratio,[3]; [19],12.84
same,"Rate (C5 aldehydes), daily average",[3]; [19],1.27 gmoles/L/Hr
same,Linear/Branched Aldehyde Mole Ratio,[3]; [20],14.44
same,"Rate (C5 aldehydes), daily average",[3]; [20],1.38 gmoles/L/Hr
same,Linear/Branched Aldehyde Mole Ratio,[3]; [21],13.06
same,"Rate (C5 aldehydes), daily average",[3]; [21],1.62 gmoles/L/Hr
same,Linear/Branched Aldehyde Mole Ratio,[3]; [22],17.67
same,"Rate (C5 aldehydes), daily average",[3]; [22],1.64 gmoles/L/Hr
same,Linear/Branched Aldehyde Mole Ratio,[3]; [23],20.95
same,"Rate (C5 aldehydes), daily average",[3]; [23],1.85 gmoles/L/Hr
same,Linear/Branched Aldehyde Mole Ratio,[3]; [24],18.76
same,"Rate (C5 aldehydes), daily average",[3]; [24],2.09 gmoles/L/Hr
same,Linear/Branched Aldehyde Mole Ratio,[3]; [25],18.38
same,"Rate (C5 aldehydes), daily average",[3]; [25],2.19 gmoles/L/Hr
same,Linear/Branched Aldehyde Mole Ratio,[3]; [26],20.52
same,"Rate (C5 aldehydes), daily average",[3]; [26],1.40 gmoles/L/Hr
same,Linear/Branched Aldehyde Mole Ratio,[3]; [27],18.90
same,"Rate (C5 aldehydes), daily average",[3]; [27],1.51 gmoles/L/Hr
same,Linear/Branched Aldehyde Mole Ratio,[3]; [28],21.86
same,"Rate (C5 aldehydes), daily average",[3]; [28],1.62 gmoles/L/Hr
same,Linear/Branched Aldehyde Mole Ratio,[3]; [29],28.03
same,"Rate (C5 aldehydes), daily average",[3]; [29],1.83 gmoles/L/Hr
